Measurements from patent US8394825B2, “Compound” (Sterix Limited, priority 2007, dated 2013).
Where two headings read alike, the source gives them in different places.

How the values were obtained:
[1] = test system: DU145 cells; assay: Antiproliferative assay in DU145 cells, WST-1 cell proliferation assay, 96 hours (GI50); format: cell-based
Experimental: Antiproliferative assays. DU145 cells were seeded into 96 well microtiter plates (5000 cells/well) and treated with […] of compounds or with vehicle control. At 96 hours post-treatment, live cell counts were determined by WST-1 cell proliferation assay (Roche, Penzberg, Germany), as per manufacturer's instructions. Viability results were expressed as a percentage of mean control values resulting in the calculation of the 50% growth inhibition (GI50). All experiments were performed in triplicate.

[2] = Homo sapiens, DU-145, 96 hours post-treatment, triplicate
[3] = Homo sapiens, DU-145, 96 hours post-treatment, 50% growth inhibition
[4] = 96 hours post-treatment, triplicate, read-out: DU-145 GI50

Row | Structure (SMILES) | GI50 [1, 2] [µM] | melting point [°C] | GI50 [1, 3] [µM] | GI50 [1, 4] [µM]
1 | COc1cc2c(cc1O)CCN(Cc1cccc(OC(C)C)c1)C2 [compound 61, 2-(3-Isopropoxybenzyl)-6-hydroxy-7-methoxy-1,2,3,4-tetrahydroisoquinoline] | > 100 | 143 to 146 | – | –
2 | CCOc1cccc(CN2CCc3cc(O)c(OC)cc3C2)c1 [compound 63, 2-(3-Ethoxybenzyl)-6-hydroxy-7-methoxy-1,2,3,4-tetrahydroisoquinoline] | > 100 | 105 to 106 | – | –
3 | COc1cc2c(cc1O)CCN(Cc1cccc(O)c1)C2 [compound 70, 2-(3-Hydroxybenzyl)-7-methoxy-1,2,3,4-tetrahydroisoquinolin-6-ol] | > 100 | 177 to 178 | – | –
4 | COc1cc2c(cc1O)CCN(Cc1ccc(C#N)cc1)C2 [compound 65, 2-(4-Cyanobenzyl)-6-hydroxy-7-methoxy-1,2,3,4-tetrahydroisoquinoline] | > 100 | 165 to 166.5 | – | –
5 | COc1cc2c(cc1O)CCN(Cc1cccc(Oc3ccccc3)c1)C2 [compound 43, 6-Hydroxy-7-methoxy-2-(3-phenoxybenzyl)-1,2,3,4-tetrahydroisoquinoline] | 10 to 50 | 139 to 140 | – | –
6 | COc1cc2c(cc1OCc1ccccc1)CCN(Cc1cccc(F)c1)C2 [compound 22, 6-Benzyloxy-2-(3-fluorobenzyl)-7-methoxy-1,2,3,4-tetrahydroisoquinoline] | > 100 | 77 to 79.5 | – | –
7 | COc1cc(CN2CCc3cc(O)c(OC)cc3C2)cc(OC)c1 [compound 42, 6-Hydroxy-2-(3,5-dimethoxybenzyl)-7-methoxy-1,2,3,4-tetrahydroisoquinoline] | 50 to 100 | 127 to 128 | – | –
8 | COc1cc2c(cc1O)CCN(Cc1cccc(OC)c1OC)C2 [compound 56, 6-Hydroxy-7-methoxy-2-(2,3-dimethoxybenzyl)-1,2,3,4-tetrahydroisoquinoline] | > 100 | 101 to 102 | – | –
9 | COc1cc(OC)cc(C(=O)N2CCc3cc(OCc4ccccc4)c(OC)cc3C2=O)c1 [compound 129, 6-(Benzyloxy)-2-(3,5-dimethoxybenzoyl)-7-methoxy-3,4-dihydro-2H-isoquinolin-1-one] | > 100 | 180 to 181 | – | –
10 | COc1cc2c(cc1O)CCN(Cc1cc(OC)c(OC)c(OC)c1)C2 [compound 54, 6-Hydroxy-7-methoxy-2-(3,4,5-trimethoxybenzyl)-1,2,3,4-tetrahydroisoquinoline] | < 10 | 170 to 171 | – | –
11 | COc1cc2c(cc1O)CCN(Cc1ccccc1OC)C2 [compound 41, 6-Hydroxy-7-methoxy-2-(2-methoxybenzyl)-1,2,3,4-tetrahydroisoquinoline] | > 100 | 128 to 129 | – | –
12 | COc1cc2c(cc1O)CCN(Cc1cccc(C#N)c1)C2 [compound 64, 2-(3-Cyanobenzyl)-6-hydroxy-7-methoxy-1,2,3,4-tetrahydroisoquinoline] | > 100 | 113 to 155 | – | –
13 | COc1cc2c(cc1O)CCN(Cc1ccccc1O)C2 [compound 69, 2-(2-Hydroxybenzyl)-6-hydroxy-7-methoxy-1,2,3,4-tetrahydroisoquinoline] | > 100 | 151.9 to 152.6 | – | –
14 | COc1cc2c(cc1O)CCN(Cc1ccccc1)C2 [compound 38, 2-Benzyl-6-hydroxy-7-methoxy-1,2,3,4-tetrahydroisoquinoline] | > 100 | 134 to 135 | – | –
15 | COc1cc2c(cc1OS(N)(=O)=O)CCN(Cc1cccc(C)c1)C2 [compound 77, 7-Methoxy-2-(3-methylbenzyl)-6-O-sulfamoyl-1,2,3,4-tetrahydroisoquinoline] | – | – | – | 10 to 50
16 | COc1cc2c(cc1OS(N)(=O)=O)CCN(C(=O)c1cc(OC)c(OC)c(OC)c1)C2 [compound 127, 7-methoxy-6-O-sulfamoyl-2-(3,4,5-trimethoxybenzoyl)-1,2,3,4-tetrahydroisoquinoline] | – | – | – | < 10
17 | COc1cc2c(cc1OS(N)(=O)=O)CCN(Cc1cccc(Oc3ccccc3)c1)C2 [compound 78, 7-Methoxy-2-(3-phenoxybenzyl)-6-O-sulfamoyl-1,2,3,4-tetrahydroisoquinoline] | – | – | – | 10 to 50

Further lines, results first:

Row | GI50 [1, 2] [µM] | melting point [°C] | GI50 [1, 3] [µM] | GI50 [1, 4] [µM] | Structure (SMILES)
18 | > 100 | 140 to 142 | – | – | COc1cc2c(cc1O)CCN(S(=O)(=O)c1ccccc1OC)C2 [compound 184, 6-Hydroxy-7-methoxy-2-(2-methoxy-benzenesulfonyl)-1,2,3,4-tetrahydroisoquinoline]
19 | > 100 | 200 to 201 | – | – | COc1ccc(C(=O)N2CCc3cc(OCc4ccccc4)c(OC)cc3C2=O)cc1OC [compound 133, 6-(Benzyloxy)-7-methoxy-2-(3,4-dimethoxybenzoyl)-3,4-dihydro-2H-isoquinoline-1-one]
20 | > 100 | 195 to 196 | – | – | COc1cc2c(cc1OCc1ccccc1)CCN(C(=O)c1cc(OC)c(OC)c(OC)c1)C2=O [compound 134, 6-Benzyloxy-7-methoxy-2-(3,4,5-trimethoxybenzoyl)-3,4-dihydro-2H-isoquinolin-1-one]
21 | > 100 | 178 to 180 | – | – | COc1cc2c(cc1O)CCN(S(=O)(=O)c1cccc(C(F)(F)F)c1)C2 [compound 181, 6-Hydroxy-7-methoxy-2-(3-trifluoromethyl-benzenesulfonyl)-1,2,3,4-tetrahydroisoquinoline]
22 | – | 159 to 162 | > 100 | – | COc1cc2c(cc1O)CC(C)(C)N(C(=O)c1cc(OC)c(OC)c(OC)c1)C2 [compound 234, (6-Hydroxy-7-methoxy-3,3-dimethyl-3,4-dihydro-1H-isoquinolin-2-yl)-(3,4,5-trimethoxy-phenyl)-methanone]
23 | 50 to 100 | 197 to 198 | – | – | COc1cc2c(cc1O)CCN(C(=O)c1cccc(C#N)c1)C2=O [compound 144, 2-(3-Cyanobenzoyl)-6-hydroxy-7-methoxy-3,4-dihydro-2H-isoquinoline-1-one]
24 | > 100 | 195 to 197 | – | – | COc1cccc(S(=O)(=O)N2CCc3cc(O)c(OC)cc3C2=O)c1 [compound 201, 6-Hydroxy-7-methoxy-2-(3-methoxy-benzenesulfonyl)-3,4-dihydro-2H-isoquinolin-1-one]
25 | > 100 | 202 to 203 | – | – | COc1cc2c(cc1OCc1ccccc1)CCN(S(=O)(=O)c1ccccc1OC)C2=O [compound 197, 6-Benzyloxy-7-methoxy-2-(2-methoxy-benzenesulfonyl)-3,4-dihydro-2H-isoquinolin-1-one]
26 | – | 172 to 176 | > 100 | – | COc1cc2c(cc1OS(N)(=O)=O)CC(C)(C)N(C(=O)c1cc(OC)c(OC)c(OC)c1)C2 [compound 236, Sulfamic acid 7-methoxy-3,3-dimethyl-2-(3,4,5-trimethoxy-benzoyl)-1,2,3,4-tetrahydro-isoquinolin-6-yl ester]
27 | > 100 | 176 to 179 | – | – | COc1cc2c(cc1O)CCN(S(=O)(=O)c1cccc(C)c1)C2 [compound 180, 6-Hydroxy-7-methoxy-2-(toluene-3-sulfonyl)-1,2,3,4-tetrahydroisoquinoline]
28 | – | 155 to 158 | 10 to 50 | – | COc1cc(CN2Cc3cc(OC)c(O)cc3CC2C)cc(OC)c1 (stereo not shown) [compound 218, 2-(3,5-Dimethoxybenzyl)-1,2,3,4-tetrahydro-7-methoxy-3-methylisoquinolin-6-ol]
29 | > 100 | 136 to 137 | – | – | COc1cc2c(cc1OCc1ccccc1)CCN(Cc1cc(OC)c(OC)c(OC)c1)C2=O [compound 158, 6-(benzyloxy)-7-methoxy-2-(3,4,5-trimethoxybenzyl)-3,4-dihydro-2H-isoquinolin-1-one]
30 | < 10 | 199 to 200 | – | – | COc1cc2c(cc1O)CCN(C(=O)c1ccc(OC)c(OC)c1)C2=O [compound 142, 2-(3,4-Dimethoxybenzoyl)-6-hydroxy-7-methoxy-3,4-dihydro-2H-isoquinoline-1-one]
31 | > 100 | 168 to 169 | – | – | COc1cc2c(cc1O)CCN(Cc1cc(OC)c(OC)c(OC)c1)C2=O [compound 163, 6-hydroxy-7-methoxy-2-(3,4,5-trimethoxybenzyl)-3,4-dihydro-2H-isoquinolin-1-one]
32 | > 100 | 147 to 149 | – | – | COc1ccc(S(=O)(=O)N2CCc3cc(O)c(OC)cc3C2)cc1 [compound 185, 6-Hydroxy-7-methoxy-2-(4-methoxy-benzenesulfonyl)-1,2,3,4-tetrahydroisoquinoline]
33 | < 10 | 198 to 199 | – | – | COc1cccc(C(=O)N2CCc3cc(O)c(OC)cc3C2=O)c1 [compound 139, 6-Hydroxy-7-methoxy-2-(3-methoxybenzoyl)-3,4-dihydro-2H-isoquinoline-1-one]
34 | < 10 | 175 to 176 | – | – | COc1cc2c(cc1O)CCN(C(=O)c1cc(OC)c(OC)c(OC)c1)C2=O [compound 143, 6-Hydroxy-7-methoxy-2-(3,4,5-trimethoxybenzoyl)-3,4-dihydro-2H-isoquinolin-1-one]
35 | – | – | – | < 10 | COc1cc2c(cc1OS(N)(=O)=O)CCN(C(=O)c1cc(OC)c(OC)c(OC)c1)C2=O [compound 152, 7-methoxy-6-O-sulfamoyl-2-(3,4,5-trimethoxybenzoyl)-3,4-dihydro-2H-isoquinolin-1-one]
36 | – | – | – | > 100 | COc1ccc(S(=O)(=O)N2CCc3cc(OS(N)(=O)=O)c(OC)cc3C2)cc1 [compound 195, 7-Methoxy-2-(4-methoxy-benzenesulfonyl)-6-O-sulfamoyl-1,2,3,4-tetrahydroisoquinoline]
